Test systems include SNB-75 CNS; SK-MEL-28 melanoma; OVCAR-5 ovarian; A549 NSCLC; SF-295 CNS; NCI-H522 lung; ACHN renal; SR leukemia; SK-MEL-2 melanoma; MDA-MB-231 breast.
What all share (assay): growth of human tumour cells (NCI), 48 h

SMILES strings stand for the structures. Values joined by “and” are separate entries in the source; they are usually repeats but may differ in a detail not shown here. Equal entries are not always repeated.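 Cells were grown in 96-well plates and exposed to each compound for 48 hours at five concentrations; endpoints were interpolated linearly between bracketing concentrations, or set to the highest concentration if not reached. GI50 marks 50% less growth. TGI denotes the concentration required for complete inhibition of growth.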

Take `COc1ccccc1CNCCCN1C(=O)c2ccc3c4c(ccc(c24)C1=O)C(=O)N(CCCNCc1ccccc1OC)C3=O`: the GI50 in the assay on SNB-75 CNS was 0.283 µM; in the assay with SK-MEL-28 melanoma it was 0.436 µM; in the assay on OVCAR-5 ovarian it was 0.225 µM; with A549 NSCLC it was 0.2 µM; in the assay on SF-295 CNS, 0.213 µM; in the assay on NCI-H522 lung, 0.145 µM. Also, the GI50 was 0.17 µM with ACHN renal, 0.264 µM in the assay with SR leukemia, 0.203 µM with SK-MEL-2 melanoma and 0.227 µM in the assay with MDA-MB-231 breast. The TGI is 0.754 µM in the assay on SNB-75 CNS; 0.876 µM in the assay with SK-MEL-28 melanoma; 0.597 µM in the assay on OVCAR-5 ovarian; 0.46 µM in the assay with A549 NSCLC; 0.666 µM with SF-295 CNS; 0.307 µM in the assay with NCI-H522 lung. In addition, the TGI was determined as 0.555 µM with ACHN renal, 0.928 µM with SR leukemia, 0.427 µM in the assay with SK-MEL-2 melanoma and 0.867 µM in the assay with MDA-MB-231 breast.
As to `O=C1NC(=O)C2C3C=CC(C12)C1C2C(=O)NC(=O)C2C31` (stereo not given), the GI50 is 291 µM with SNB-75 CNS; 938 µM with SK-MEL-28 melanoma; more than 1000 µM in the assay on OVCAR-5 ovarian; 172 µM in the assay on A549 NSCLC; 827 µM with SF-295 CNS; 261 µM in the assay with NCI-H522 lung. Moreover, the GI50 in the assay on ACHN renal is 766 µM; in the assay on SR leukemia it was 68.9 µM and 108 µM; in the assay with SK-MEL-2 melanoma it was more than 719 µM; with MDA-MB-231 breast, more than 801 µM. Moreover, the TGI in the assay with SNB-75 CNS is 249 µM and > 856 µM; in the assay on SK-MEL-28 melanoma, 244 µM and > 1000 µM; in the assay with OVCAR-5 ovarian it was more than 1000 µM; in the assay on A549 NSCLC it was 250 µM and > 1000 µM; in the assay with SF-295 CNS, 199 µM and > 1000 µM; in the assay on NCI-H522 lung it was 235 µM and 864 µM. For the same molecule, the TGI is more than 1000 µM with ACHN renal; 250 µM and > 871 µM in the assay with SR leukemia; 244 µM and > 1000 µM in the assay on SK-MEL-2 melanoma; more than 1000 µM in the assay on MDA-MB-231 breast.
Regarding `O=[N+]([O-])c1ccc(/C=C(/c2ccc([N+](=O)[O-])o2)S(=O)(=O)c2ccccc2)cc1`, the TGI in the assay on SNB-75 CNS, with SK-MEL-28 melanoma, with OVCAR-5 ovarian, in the assay on A549 NSCLC, in the assay on SF-295 CNS and with NCI-H522 lung was more than 100 µM throughout. For the same molecule, the TGI with ACHN renal was more than 100 µM; in the assay on SR leukemia it was 36.5 µM; in the assay with SK-MEL-2 melanoma it was more than 100 µM; in the assay with MDA-MB-231 breast, 88.2 µM.
For the molecule `O=c1c(Oc2ccc(F)cc2F)cc2cnc(NC3CCOCC3)nc2n1C1CC1`, the GI50 with SNB-75 CNS, in the assay with SK-MEL-28 melanoma, with OVCAR-5 ovarian, in the assay with A549 NSCLC, with SF-295 CNS and in the assay with NCI-H522 lung was more than 25 µM each time. Further, the GI50 in the assay on ACHN renal, in the assay on SR leukemia, in the assay on SK-MEL-2 melanoma and in the assay on MDA-MB-231 breast was more than 25 µM throughout. Further, the TGI in the assay with SNB-75 CNS, in the assay on SK-MEL-28 melanoma, with OVCAR-5 ovarian, with A549 NSCLC, in the assay with SF-295 CNS and in the assay with NCI-H522 lung was more than 25 µM each time. Moreover, the TGI in the assay on ACHN renal, in the assay with SR leukemia, in the assay on SK-MEL-2 melanoma and with MDA-MB-231 breast was more than 25 µM throughout.
In the case of `C=C(C)c1nc(Oc2ccccc2)nc(Oc2ccccc2)n1`, the TGI came out at 24.5 µM in the assay on SNB-75 CNS; 15.3 µM with SK-MEL-28 melanoma; 30.2 µM in the assay on OVCAR-5 ovarian; 38.8 µM in the assay on A549 NSCLC; 29.8 µM in the assay with SF-295 CNS; 2.73 µM with NCI-H522 lung. Further, the TGI in the assay with ACHN renal was 23 µM; in the assay on SR leukemia, more than 25.1 µM; in the assay on SK-MEL-2 melanoma, 9.51 µM; with MDA-MB-231 breast, 28.9 µM.
Regarding `COc1ccc(-n2c(=O)c3ccccc3n(Cc3ccc(C(=O)NO)cc3)c2=O)cc1`, the GI50 is 1.72 µM with SNB-75 CNS; 2.18 µM in the assay with SK-MEL-28 melanoma; 2.34 µM with OVCAR-5 ovarian; 4.1 µM in the assay with A549 NSCLC; 1.81 µM with SF-295 CNS; 1.45 µM in the assay on NCI-H522 lung. Besides, the GI50 in the assay on ACHN renal was 3.23 µM; in the assay with SR leukemia, 2.86 µM; in the assay with SK-MEL-2 melanoma, 2.31 µM; in the assay on MDA-MB-231 breast it was 3.06 µM. Besides, the TGI came out at 5.71 µM with SNB-75 CNS; 5.83 µM in the assay with SK-MEL-28 melanoma; 7.56 µM in the assay on OVCAR-5 ovarian; 16.3 µM with A549 NSCLC; 3.54 µM in the assay with SF-295 CNS; 4.07 µM with NCI-H522 lung. In addition, the TGI with ACHN renal was 13.5 µM; in the assay with SR leukemia it was more than 100 µM; in the assay on SK-MEL-2 melanoma it was 7.13 µM; with MDA-MB-231 breast it was 8.63 µM.
Regarding `COc1ccc(Cn2c(Br)c3c(c2-c2cc(OC)c(OC)c(OC)c2)CCc2sc(N)nc2-3)cc1`, the GI50 was 0.688 µM with SNB-75 CNS; 4.76 µM with SK-MEL-28 melanoma; 4.26 µM with OVCAR-5 ovarian; 2.23 µM in the assay on A549 NSCLC; 0.556 µM in the assay with SF-295 CNS; 0.263 µM in the assay with NCI-H522 lung. Besides, the GI50 in the assay on ACHN renal was 1.07 µM; in the assay with SR leukemia it was 0.41 µM; in the assay with SK-MEL-2 melanoma, 0.72 µM; in the assay on MDA-MB-231 breast it was 1.92 µM. The TGI in the assay on SNB-75 CNS was 31.8 µM; in the assay with SK-MEL-28 melanoma, 33.6 µM; in the assay on OVCAR-5 ovarian, more than 100 µM; with A549 NSCLC it was more than 100 µM; in the assay with SF-295 CNS, 7.57 µM; in the assay with NCI-H522 lung, 1.09 µM. The TGI is 25.7 µM in the assay on ACHN renal, 5.67 µM in the assay with SR leukemia, 5.41 µM in the assay with SK-MEL-2 melanoma and 7.1 µM in the assay on MDA-MB-231 breast.
On to `CNCc1cccc2c1OCCOCCOCCNS(=O)(=O)c1ccc(cc1)-c1cnc(N)c(n1)C(=O)N2`, for which the GI50 was 0.353 µM in the assay on SNB-75 CNS; 1.66 µM in the assay on SK-MEL-28 melanoma; 2.72 µM in the assay with OVCAR-5 ovarian; 1.58 µM in the assay on A549 NSCLC; 1.76 µM with SF-295 CNS; 1.31 µM in the assay on NCI-H522 lung. The GI50 in the assay on ACHN renal is 2.78 µM; in the assay on SR leukemia it was 0.346 µM; in the assay with SK-MEL-2 melanoma, 1.76 µM; in the assay on MDA-MB-231 breast, 1.38 µM. Also, the TGI in the assay with SNB-75 CNS is 5.26 µM; in the assay on SK-MEL-28 melanoma it was 3.27 µM; in the assay with OVCAR-5 ovarian, 6.37 µM; in the assay on A549 NSCLC, 4.82 µM; in the assay with SF-295 CNS, 3.39 µM; in the assay with NCI-H522 lung, 3.15 µM. In addition, the TGI in the assay on ACHN renal came out at 11.7 µM; in the assay with SR leukemia, 13.3 µM; with SK-MEL-2 melanoma it was 4.41 µM; with MDA-MB-231 breast, 3.61 µM.

(Values after PubChem BioAssay (NCI).)
